Activity calls are given as the source filed them. The calls are words filed in the database; no cut-off is given here.
Assays:
[1] = Inhibition of HCV genotype 1b isolate BK NS5B Cdelta21 RNA dependent RNA polymerase using [3H]UTP as substrate incubated for 25 mins prior to substrate addition measured after 120 mins by scintillation proximity assay; set-up: species or system Hepatitis C virus (isolate BK)
[2] = Half life in human liver microsomes at 10 uM; type: ADME, Microsome
[3] = Inhibition of HCV genotype 1b isolate BK NS5B Cdelta21 RNA dependent RNA polymerase L419M mutant using [3H]UTP as substrate incubated for 25 mins prior to substrate addition measured after 120 mins by scintillation proximity assay; set-up: species or system Hepatitis C virus (isolate BK)
[4] = molecular target: RNA-directed RNA polymerase (Hepacivirus hominis, UniProt O39930, P495S); experiment: Inhibition of HCV genotype 1b isolate BK NS5B Cdelta21 RNA dependent RNA polymerase P495S mutant using [3H]UTP as substrate incubated for 25 mins prior to substrate addition measured after 120 mins by scintillation proximity assay; set-up: species or system Hepatitis C virus (isolate BK)
[5] = molecular target: T1, Cytochrome P450 1A2 (Homo sapiens, UniProt P05177); experiment: Inhibition of CYP1A2 (unknown origin); type: ADME
T1 sequence (P05177 whole entry): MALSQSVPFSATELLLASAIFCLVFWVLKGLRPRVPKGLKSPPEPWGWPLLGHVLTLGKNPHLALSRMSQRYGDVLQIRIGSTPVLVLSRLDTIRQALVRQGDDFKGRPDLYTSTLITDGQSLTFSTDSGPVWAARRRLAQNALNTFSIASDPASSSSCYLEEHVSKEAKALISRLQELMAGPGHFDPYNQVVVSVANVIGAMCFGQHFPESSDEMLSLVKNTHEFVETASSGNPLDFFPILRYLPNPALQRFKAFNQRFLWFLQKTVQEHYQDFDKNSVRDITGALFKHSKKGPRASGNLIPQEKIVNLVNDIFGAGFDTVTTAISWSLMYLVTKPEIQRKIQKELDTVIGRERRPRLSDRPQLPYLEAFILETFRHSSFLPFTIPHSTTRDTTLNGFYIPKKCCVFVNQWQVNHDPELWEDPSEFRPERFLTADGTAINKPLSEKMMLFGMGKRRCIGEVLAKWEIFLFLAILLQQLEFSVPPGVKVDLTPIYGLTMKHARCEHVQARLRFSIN

[6] = Inhibition of calf thymus RNA polymerase 2; set-up: species or system Bos taurus
[7] = molecular target: Cytochrome P450 2C19 (Homo sapiens, UniProt P33261); experiment: Inhibition of CYP2C19 (unknown origin); type: ADME
[8] = molecular target: Cytochrome P450 3A4 (Homo sapiens, UniProt P08684); experiment: Inhibition of CYP3A4 (unknown origin); type: ADME
[9] = tested on: Hepatitis C virus (isolate BK); experiment: Ratio of IC50 for HCV genotype 1b isolate BK NS5B Cdelta21 RNA dependent RNA polymerase L419M mutant to IC50 for HCV genotype 1b isolate BK wild type NS5B Cdelta21 RNA dependent RNA polymerase
[10] = molecular target: Cytochrome P450 2C9 (Homo sapiens, UniProt P11712); experiment: Inhibition of CYP2C9 (unknown origin); type: ADME
[11] = Permeability from apical to basal side of human Caco2 cells at pH 7.4; type: ADME, cell-based; conditions: Caco-2, pH 7.4, read-out: permeability
[12] = molecular target: RNA-directed RNA polymerase (Hepacivirus hominis, UniProt O39930, M414T); experiment: Inhibition of HCV genotype 1b isolate BK NS5B Cdelta21 RNA dependent RNA polymerase M414T mutant using [3H]UTP as substrate incubated for 25 mins prior to substrate addition measured after 120 mins by scintillation proximity assay; set-up: species or system Hepatitis C virus (isolate BK)
[13] = molecular target: Cytochrome P450 2D6 (Homo sapiens, UniProt P10635); experiment: Inhibition of CYP2D6 (unknown origin); type: ADME
[14] = tested on: Hepatitis C virus; experiment: Antiviral activity against HCV genotype 1b infected in HuH7 cells assessed as inhibition of viral replication after 48 hrs by RT-PCR analysis; type: functional, organism-based; conditions: Hepacivirus hominis, Huh-7
[15] = Solubility of the compound in buffer after 24 hrs at pH 7.2 by shake flask method; type: physicochemical
[16] = molecular target: RNA-directed RNA polymerase (Hepacivirus hominis, UniProt O39930, M423T); experiment: Inhibition of HCV genotype 1b isolate BK NS5B Cdelta21 RNA dependent RNA polymerase M423T mutant using [3H]UTP as substrate incubated for 25 mins prior to substrate addition measured after 120 mins by scintillation proximity assay; set-up: species or system Hepatitis C virus (isolate BK)
Chain of RNA-directed RNA polymerase (Hepacivirus hominis, UniProt O39930, M423T) (O39930 entry or part of it M423T): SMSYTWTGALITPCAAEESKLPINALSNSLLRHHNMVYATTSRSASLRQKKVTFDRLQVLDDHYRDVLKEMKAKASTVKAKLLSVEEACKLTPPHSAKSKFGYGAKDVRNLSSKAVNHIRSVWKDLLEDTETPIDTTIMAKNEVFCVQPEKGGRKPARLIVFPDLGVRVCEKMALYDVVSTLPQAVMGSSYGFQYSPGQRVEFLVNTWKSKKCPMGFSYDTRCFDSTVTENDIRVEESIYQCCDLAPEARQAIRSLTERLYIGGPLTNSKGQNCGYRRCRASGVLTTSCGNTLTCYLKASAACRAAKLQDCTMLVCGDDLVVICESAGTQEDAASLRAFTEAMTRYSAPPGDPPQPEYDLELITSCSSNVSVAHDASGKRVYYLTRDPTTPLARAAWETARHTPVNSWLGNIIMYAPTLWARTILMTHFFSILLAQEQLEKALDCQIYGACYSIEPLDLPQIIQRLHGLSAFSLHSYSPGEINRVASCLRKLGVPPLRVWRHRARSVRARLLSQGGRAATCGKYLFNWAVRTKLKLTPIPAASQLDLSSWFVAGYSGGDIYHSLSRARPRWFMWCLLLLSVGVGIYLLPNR

Chain of Cytochrome P450 2C19 (P33261 whole entry): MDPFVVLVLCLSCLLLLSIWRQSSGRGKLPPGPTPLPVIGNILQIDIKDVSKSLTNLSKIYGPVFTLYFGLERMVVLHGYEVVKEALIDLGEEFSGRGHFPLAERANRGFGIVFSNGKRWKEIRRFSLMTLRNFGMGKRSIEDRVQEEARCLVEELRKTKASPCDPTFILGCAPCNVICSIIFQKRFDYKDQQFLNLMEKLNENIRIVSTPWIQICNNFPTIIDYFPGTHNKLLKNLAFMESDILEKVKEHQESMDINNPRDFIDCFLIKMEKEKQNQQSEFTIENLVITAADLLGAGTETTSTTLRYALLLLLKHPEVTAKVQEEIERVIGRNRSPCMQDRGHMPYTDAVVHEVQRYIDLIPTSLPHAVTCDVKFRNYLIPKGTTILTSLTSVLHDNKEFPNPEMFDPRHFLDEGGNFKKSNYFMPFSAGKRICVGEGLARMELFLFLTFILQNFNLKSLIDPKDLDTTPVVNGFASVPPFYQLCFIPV
Chain of Cytochrome P450 3A4 (P08684 whole entry): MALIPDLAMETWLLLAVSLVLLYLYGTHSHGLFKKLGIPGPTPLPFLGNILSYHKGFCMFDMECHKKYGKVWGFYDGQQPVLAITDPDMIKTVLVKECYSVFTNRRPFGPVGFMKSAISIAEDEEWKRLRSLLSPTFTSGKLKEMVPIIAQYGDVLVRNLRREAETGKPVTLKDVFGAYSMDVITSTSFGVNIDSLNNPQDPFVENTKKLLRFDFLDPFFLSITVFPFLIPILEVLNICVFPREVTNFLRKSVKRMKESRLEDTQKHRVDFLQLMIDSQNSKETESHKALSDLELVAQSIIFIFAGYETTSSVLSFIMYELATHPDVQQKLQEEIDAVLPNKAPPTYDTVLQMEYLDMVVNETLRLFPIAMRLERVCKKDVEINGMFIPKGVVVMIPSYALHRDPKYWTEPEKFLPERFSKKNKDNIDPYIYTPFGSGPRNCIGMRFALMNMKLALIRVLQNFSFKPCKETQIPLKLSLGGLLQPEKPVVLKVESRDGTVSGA
Chain of Cytochrome P450 2C9 (P11712 whole entry): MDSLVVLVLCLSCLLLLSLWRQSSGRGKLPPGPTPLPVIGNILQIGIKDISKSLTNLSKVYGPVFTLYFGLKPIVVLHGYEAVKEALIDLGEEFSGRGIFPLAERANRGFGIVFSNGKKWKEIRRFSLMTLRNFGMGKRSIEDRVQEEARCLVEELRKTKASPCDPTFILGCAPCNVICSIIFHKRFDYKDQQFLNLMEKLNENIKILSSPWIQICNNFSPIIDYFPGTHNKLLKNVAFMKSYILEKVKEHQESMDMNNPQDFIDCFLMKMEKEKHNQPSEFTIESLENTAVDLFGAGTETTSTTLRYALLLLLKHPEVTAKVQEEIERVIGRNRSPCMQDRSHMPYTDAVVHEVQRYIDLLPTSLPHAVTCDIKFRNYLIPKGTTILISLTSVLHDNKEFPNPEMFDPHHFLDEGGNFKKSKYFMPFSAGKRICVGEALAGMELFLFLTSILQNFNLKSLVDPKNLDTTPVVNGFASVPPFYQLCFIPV
Chain of Cytochrome P450 2D6 (P10635 whole entry): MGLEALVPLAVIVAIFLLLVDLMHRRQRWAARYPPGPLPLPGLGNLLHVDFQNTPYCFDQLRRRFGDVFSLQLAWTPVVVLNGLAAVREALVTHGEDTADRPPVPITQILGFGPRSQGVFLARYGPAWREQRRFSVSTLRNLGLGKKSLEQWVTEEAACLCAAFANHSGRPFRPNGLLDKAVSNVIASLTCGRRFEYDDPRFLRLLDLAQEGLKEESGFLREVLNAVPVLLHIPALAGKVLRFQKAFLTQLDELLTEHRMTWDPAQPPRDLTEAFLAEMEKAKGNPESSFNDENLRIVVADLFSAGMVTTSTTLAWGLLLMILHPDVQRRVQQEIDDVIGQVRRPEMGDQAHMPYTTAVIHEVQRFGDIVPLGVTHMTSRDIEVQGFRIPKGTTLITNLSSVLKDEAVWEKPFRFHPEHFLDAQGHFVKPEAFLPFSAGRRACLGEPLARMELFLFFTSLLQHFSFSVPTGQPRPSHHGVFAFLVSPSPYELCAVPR
Chain of RNA-directed RNA polymerase (Hepacivirus hominis, UniProt O39930, M414T) (O39930 entry or part of it M414T): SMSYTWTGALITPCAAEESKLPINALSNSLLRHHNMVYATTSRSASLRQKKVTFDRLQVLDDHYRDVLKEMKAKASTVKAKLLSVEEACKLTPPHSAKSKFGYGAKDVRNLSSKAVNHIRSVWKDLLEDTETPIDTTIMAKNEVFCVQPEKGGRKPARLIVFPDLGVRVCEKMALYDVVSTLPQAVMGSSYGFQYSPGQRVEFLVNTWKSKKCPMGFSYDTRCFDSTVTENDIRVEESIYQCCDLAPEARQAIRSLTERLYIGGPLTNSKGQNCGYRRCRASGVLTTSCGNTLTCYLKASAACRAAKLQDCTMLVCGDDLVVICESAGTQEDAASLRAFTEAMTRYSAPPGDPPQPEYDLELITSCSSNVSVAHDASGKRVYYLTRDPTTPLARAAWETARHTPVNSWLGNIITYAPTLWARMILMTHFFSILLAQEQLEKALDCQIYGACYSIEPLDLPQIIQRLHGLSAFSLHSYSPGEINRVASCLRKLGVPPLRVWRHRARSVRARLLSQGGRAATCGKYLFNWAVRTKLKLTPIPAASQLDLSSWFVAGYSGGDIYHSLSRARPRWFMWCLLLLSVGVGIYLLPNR
Chain of RNA-directed RNA polymerase (Hepacivirus hominis, UniProt O39930, P495S) (O39930 entry or part of it P495S): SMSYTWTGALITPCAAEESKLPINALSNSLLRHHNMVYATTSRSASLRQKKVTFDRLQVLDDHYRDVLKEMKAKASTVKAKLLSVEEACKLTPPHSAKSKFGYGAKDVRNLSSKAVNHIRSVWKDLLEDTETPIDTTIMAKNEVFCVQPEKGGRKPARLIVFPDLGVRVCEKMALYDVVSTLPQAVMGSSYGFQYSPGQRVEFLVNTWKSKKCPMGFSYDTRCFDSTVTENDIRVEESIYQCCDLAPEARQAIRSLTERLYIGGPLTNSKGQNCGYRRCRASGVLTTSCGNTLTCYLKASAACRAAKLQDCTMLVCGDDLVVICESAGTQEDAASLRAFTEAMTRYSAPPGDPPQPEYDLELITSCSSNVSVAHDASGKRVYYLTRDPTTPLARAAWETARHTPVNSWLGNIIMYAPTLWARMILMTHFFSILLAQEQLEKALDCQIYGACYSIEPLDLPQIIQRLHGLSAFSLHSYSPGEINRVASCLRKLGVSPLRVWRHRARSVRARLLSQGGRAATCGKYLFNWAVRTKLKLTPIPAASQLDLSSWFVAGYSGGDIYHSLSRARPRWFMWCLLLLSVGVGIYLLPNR

For `O=C(O)c1cc(Br)ccc1NS(=O)(=O)c1ccccc1`, the IC50 [1] was 43 µM.

`O=C(O)c1cc(Br)ccc1NS(=O)(=O)c1ccc(Br)s1` showed an IC50 [1] of 6.1 µM.

`O=C(O)c1cc(Oc2ccccc2)ccc1NS(=O)(=O)c1ccc(Br)cc1F` showed a half-life at 10 µM [2] of 27 min, an IC50 [3] of 1.8 µM and an IC50 [4] of 0.093 µM. It also gave an IC50 [5] of over 30 µM, an IC50 [6] of over 100 µM and an IC50 [7] of 1.1 µM. It also gave an IC50 [1] of 0.11 µM, an IC50 [8] of 26 µM and a Ratio IC50 [9] of 15. The IC50 [10] was 1.1 µM, the Papp A→B [11] was under 0.1 ×10⁻⁶ cm/s and the IC50 [12] was 0.052 µM. The IC50 [13] was over 30 µM, the Activity [14] was “inactive” and the solubility thermodynamic at 24 h [15] was over 900 µg/mL. The IC50 [16] was 0.2 µM.

Molecule `O=C(O)c1cc(Oc2ccccc2)ccc1NS(=O)(=O)c1ccc(Br)s1` has an IC50 [1] of 0.55 µM.

For `O=C(O)c1ccc(-c2ccccc2)cc1NS(=O)(=O)c1ccc(Br)s1`, the IC50 [1] was 6.7 µM.

Work on `Cc1ccc(S(=O)(=O)Nc2ccc(Oc3ccccc3)cc2C(=O)O)cc1` yielded a half-life at 10 µM [2] of 11 min, an IC50 [3] of 1.2 µM and an IC50 [5] of 1.8 µM. For the same molecule, the IC50 [6] was over 100 µM, the IC50 [7] was over 30 µM and the IC50 [1] was 0.086 µM. The IC50 [8] was over 30 µM, the Ratio IC50 [9] was 15 and the IC50 [10] was 3 µM. The Papp A→B [11] was 2.2 ×10⁻⁶ cm/s, the IC50 [13] was over 30 µM and the Activity [14] was “inactive”. It also gave a solubility thermodynamic at 24 h [15] of over 900 µg/mL and an IC50 [16] of 0.17 µM.

For `O=C(O)c1ccc(Oc2ccccc2)cc1NS(=O)(=O)c1ccc(Br)s1`, the IC50 [1] was 0.61 µM.

`O=C(O)c1ccc(Cl)cc1NS(=O)(=O)c1ccc(Br)s1` gave an IC50 [1] of 4.6 µM.

With `O=C(O)c1cc(Br)ccc1NS(=O)(=O)c1ccc(Cl)c(Cl)c1` the IC50 [1] was 8.4 µM.

Work on `O=C(O)c1ccc(Cl)cc1NS(=O)(=O)c1cc(F)c(Br)cc1F` yielded an IC50 [1] of 6.8 µM.

With `O=C(O)c1ccc(Oc2ccccc2)cc1NS(=O)(=O)c1ccc(Br)cc1F` the IC50 [1] was 0.31 µM.

`O=C(O)c1ccc(Cl)cc1NS(=O)(=O)c1cc(Cl)c(Cl)cc1Cl` gave an IC50 [1] of 11 µM.

`O=C(O)c1cc(-c2ccccc2)ccc1NS(=O)(=O)c1ccc(Br)s1` gave an IC50 [1] of 3.7 µM.

`Cc1cc(NS(=O)(=O)c2cc(Cl)c(Cl)cc2Cl)no1` gave an IC50 [1] of 100 µM.

For `O=C(O)c1cc(Br)ccc1NS(=O)(=O)c1cc(F)c(Br)cc1F`, the IC50 [1] was 4.5 µM.

`O=C(O)c1cc(Br)ccc1NS(=O)(=O)c1cc(Cl)c(Cl)cc1Cl` showed an IC50 [1] of 9 µM.

In the case of `Cc1ccc(S(=O)(=O)Nc2cc(Oc3ccccc3)ccc2C(=O)O)cc1`, the half-life at 10 µM [2] is reported as 17 min, the IC50 [3] is reported as 1.2 µM and the IC50 [4] is reported as 0.077 µM. For the same molecule, the IC50 [5] was over 30 µM, the IC50 [6] was over 100 µM and the IC50 [7] was 7.9 µM. The IC50 [1] was 0.072 µM, the IC50 [8] was over 30 µM and the Ratio IC50 [9] was 15. For the same molecule, the IC50 [10] was 3.1 µM, the Papp A→B [11] was 2.4 ×10⁻⁶ cm/s and the IC50 [12] was 0.052 µM. The IC50 [13] was over 30 µM, the Activity [14] was “inactive” and the solubility thermodynamic at 24 h [15] was over 700 µg/mL. For the same molecule, the IC50 [16] was 0.1 µM.

In the case of `O=C(O)c1ccccc1NS(=O)(=O)c1cc(Cl)c(Cl)cc1Cl`, the IC50 [1] is reported as 26 µM.

— ChEMBL document CHEMBL2375335, “Discovery of a novel series of non-nucleoside thumb pocket 2 HCV NS5B polymerase inhibitors” (Bioorg Med Chem Lett, 2013)
